Experimental findings from patent US7772180B2, “Hepatitis C virus inhibitors” (Bristol-Myers Squibb Company, priority 2006, dated 2010) are described below.

Where two headings read alike, the source gives them in different places. Bounds are passed on as bounds.

Assay [1] has as its target T1, HCV NS3/4A protease complex, BMS strain (UniProt P27958, species not given/STRAIN_BMS).
T1 construct: other: NS3/4A BMS strain; activity range class; numeric values, unit not given; said of H77 and J4L6S; fused on or other part: A three-lysine solubilising tail at the C-terminus of NS4A; A His tag is implied by the pET21b vector and Ni-NTA purification; Both are printed for the H77 and J4L6S constructs and apply to BMS by inference
The assay is described as follows: FRET peptide assay to monitor HCV NS3/4A proteolytic activity (BMS strain). In kind it is biochemical, Hepatitis C virus (genotype 1a). The method, boiled down:
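Purified recombinant NS3/4A complex from genotype 1a BMS strain, 2-3 nM final, with RET S1 EDANS/DABCYL depsipeptide substrate at 2 μM final in HEPES pH 7.5, NaCl, Triton, glycerol, βME. Cleavage followed in real time by fluorescence. For high-potency compounds: 50 μg/ml BSA added, protease lowered to 300 pM.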

Assay [2] concerns HCV replicon (strain 1b) in HUH-7 cells. Description: HCV replicon FRET assay. The assay is classed as cell-based, Hepatitis C virus.
Where [3] appears, read: read-out: HCV Protease (IC50); NS3/4A BMS strain; numeric values, unit inferred.
Setting [4] is: Hepatitis C virus, Huh-7, read-out: HCV Pro Replicon (EC50), HCV replicon cell assay, numeric values, unit inferred.
Setting [5] is: read-out: HCV Protease (IC50); NS3/4A BMS strain; activity range class.
Where [6] appears, read: Hepatitis C virus, Huh-7, read-out: HCV Pro Replicon (EC50), HCV replicon cell assay, activity range class.
The mark [7] stands for this setting: read-out: HCV Pro Replicon (EC50), HCV replicon cell assay, activity range class.

T1 sequence (P27958 1027-1657, change not shown, one chain of several): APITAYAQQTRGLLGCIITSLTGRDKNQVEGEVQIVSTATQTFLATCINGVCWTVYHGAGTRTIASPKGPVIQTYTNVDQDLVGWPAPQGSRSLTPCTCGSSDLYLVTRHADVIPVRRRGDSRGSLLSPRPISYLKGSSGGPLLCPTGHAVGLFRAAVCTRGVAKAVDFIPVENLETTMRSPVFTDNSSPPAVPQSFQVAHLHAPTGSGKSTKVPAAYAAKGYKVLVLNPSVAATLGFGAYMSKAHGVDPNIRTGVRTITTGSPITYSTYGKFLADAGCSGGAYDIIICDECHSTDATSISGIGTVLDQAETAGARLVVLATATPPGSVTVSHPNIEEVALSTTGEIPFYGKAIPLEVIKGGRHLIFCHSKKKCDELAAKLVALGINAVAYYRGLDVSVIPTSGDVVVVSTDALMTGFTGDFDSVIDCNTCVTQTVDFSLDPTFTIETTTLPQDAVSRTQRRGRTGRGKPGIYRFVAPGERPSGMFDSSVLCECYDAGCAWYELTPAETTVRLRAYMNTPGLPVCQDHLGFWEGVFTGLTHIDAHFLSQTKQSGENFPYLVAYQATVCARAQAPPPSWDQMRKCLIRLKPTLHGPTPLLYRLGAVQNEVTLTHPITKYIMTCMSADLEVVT

Broadly, the IC50 is the point on the concentration scale where inhibition reaches its midpoint. As usually defined, the EC50 is the concentration at which the effect is half-maximal. Regarding `C=C[C@@H]1C[C@]1(NC(=O)[C@@H]1C[C@@H](Oc2ncc(OC)c3ccc(Cl)cc23)CN1C(=O)[C@@H](Nc1ccc(C(=O)NC(C)(C)c2ccccc2)cc1)C(C)(C)C)C(=O)NS(=O)(=O)C1CC1` [Compound 222A, 3-methyl-N-(4-((1-methyl-1-phenylethyl)carbamoyl)phenyl)-L-valyl-(4R)-4-((7-chloro-4-methoxy-1-isoquinolinyl)oxy)-N-((1R2S)-1-((cyclopropylsulfonl)carbamoyl)-2-vinylcyclopropyl)-L-prolinamide], the IC50 in assay [1] (NS3/4A BMS strain; activity range class; read-out: HCV Protease (IC50)) is 0.6 to 20 nM. Further, the EC50 in assay [2] (HCV replicon cell assay, activity range class, read-out: HCV Pro Replicon (EC50)) is 3 to 100 nM.

In the case of `C=C[C@@H]1C[C@]1(NC(=O)[C@@H]1C[C@@H](Oc2ncc(OC)c3ccc(Cl)cc23)CN1C(=O)[C@@H](Nc1cncc(Cl)c1)C(C)(C)C)C(=O)NS(=O)(=O)C1CC1` [Compound 33, N-(5-chloro-3-pyridinyl)-3-methylvalyl-(4R)-4-((7-chloro-4-methoxy-1-isoquinolinyl)oxy)-N-((1R,2S)-1-((cyclopropylsulfonyl)carbamoyl)-2-vinylcyclopropyl)-L-prolinamide], the IC50 in assay [1] (setting [3]) was 2 nM. In assay [2] (setting [4]), the EC50 was 8.19 nM.

As to `C=C[C@@H]1C[C@]1(NC(=O)[C@@H]1C[C@@H](Oc2ncc(OC)c3ccc(Cl)cc23)CN1C(=O)C(C)Nc1nsnc1OCC)C(=O)NS(=O)(=O)C1CC1` (stereo partly shown) [Compound 239], the concentration for half-maximal inhibition (IC50) in assay [1] (setting [5]) is greater than 200 nM. In addition, the EC50 in assay [2] (setting [6]) is 100 to 1000 nM.

As for `C=C[C@@H]1C[C@]1(NC(=O)[C@@H]1C[C@@H](Oc2nccc3cc(OC)ccc23)CN1C(=O)C(Nc1cc(OC)ccn1)C(C)C)C(=O)NS(=O)(=O)C1CC1` (single isomer, unassigned) [Compound 8], the IC50 in assay [1] (setting [5]) is 20 to 200 nM. Moreover, the EC50 in assay [2] (setting [6]) was in the range of 3 to 100 nM.

Consider `C=C[C@@H]1C[C@]1(NC(=O)[C@@H]1C[C@@H](Oc2nc(N(C)C)cc3cc(OC)ccc23)CN1C(=O)C(Nc1cc(C)cc(C)n1)C(C)C)C(=O)NS(=O)(=O)C1CC1` (stereo partly drawn) [Compound 17, N-(4,6-dimethyl-2-pyridinyl)valyl-(4R)—N-((1R,2S)-1-((cyclopropylsulfonyl)carbamoyl)-2-vinylcyclopropyl)-4-((3-(dimethylamino)-6-methoxy-1-isoquinolinyl)oxy)-L-prolinamide], for which, in assay [1] (setting [5]), the IC50 was in the range of 0.6 to 20 nM. Further, the EC50 in assay [2] (setting [6]) was in the range of 3 to 100 nM.

Take `C=C[C@@H]1C[C@]1(NC(=O)[C@@H]1C[C@@H](Oc2ncc(OC)c3ccc(Cl)cc23)CN1C(=O)C(Nc1ccc(OC)nc1)C(C)(C)C)C(=O)NS(=O)(=O)C1CC1` (single isomer, unassigned) [408 second isomer]: the IC50 in assay [1] (setting [5]) was greater than 200 nM. Besides, the EC50 in assay [2] (setting [7]) was 100 to 1000 nM.

As for `C=C[C@@H]1C[C@]1(NC(=O)[C@@H]1C[C@@H](Oc2ncc(OC)c3ccc(Cl)cc23)CN1C(=O)[C@@H](Nc1cccc(C(N)=O)c1)C(C)(C)C)C(=O)NS(=O)(=O)C1CC1` [217 first isomer, N-(3-carbamoylphenyl)-3-methyl-L-valyl-(4R)-4-((7-chloro-4-methoxy-1-isoquinolinyl)oxy)-N-((1R,2S)-1-((cyclopropylsulfonyl)carbamoyl)-2-vinylcyclopropyl)-L-prolinamide], the IC50 in assay [1] (setting [5]) lay within 0.6 to 20 nM. Also, the EC50 in assay [2] (setting [6]) is 3 to 100 nM.

As for `C=C[C@@H]1C[C@]1(NC(=O)[C@@H]1C[C@@H](Oc2ncc(OC)c3ccc(Cl)cc23)CN1C(=O)C(Nc1cncc(C)c1)C(C)(C)C)C(=O)NS(=O)(=O)C1CC1` (stereo partly drawn) [Compound 25, 3-methyl-N-(5-methyl-3-pyridinyl)valyl-(4R)-4-((7-chloro-4-methoxy-1-isoquinolinyl)oxy)-N-((1R,2S)-1-((cyclopropylsulfonyl)carbamoyl)-2-vinylcyclopropyl)-L-prolinamide], the IC50 in assay [1] (setting [5]) lay within 0.6 to 20 nM. Moreover, the concentration giving a half-maximal response (EC50) in assay [2] (setting [6]) was in the range of 3 to 100 nM.

With `C=CC1CC1(NC(=O)C1CC(Oc2ncc(OC)c3ccc(Cl)cc23)CN1C(=O)C(Nc1ccccc1)C(C)(C)C)C(=O)NS(=O)(=O)C1CC1` (single isomer, unassigned; isomer 3) [213 first isomer], in assay [1] (setting [5]), the IC50 is greater than 200 nM. In assay [2] (setting [7]), the 50% effective concentration (EC50) lay within 100 to 1000 nM.

In the case of `C=C[C@@H]1C[C@]1(NC(=O)[C@@H]1C[C@@H](Oc2ncc(OC)c3ccc(Cl)cc23)CN1C(=O)C(Nc1cncc(C(F)(F)F)c1)C(C)(C)C)C(=O)NS(=O)(=O)C1CC1` (single isomer, unassigned) [Compound 27A], the IC50 in assay [1] (setting [3]) came out at 3 nM. In addition, in assay [2] (setting [4]), the EC50 was determined as 4.09 nM.

For `C=C[C@@H]1C[C@]1(NC(=O)[C@@H]1C[C@@H](Oc2nccc3cc(OC)ccc23)CN1C(=O)C(Nc1ccc(OC)nc1)C(C)(C)C)C(=O)NS(=O)(=O)C1CC1` (single isomer, unassigned) [407 first isomer], the IC50 in assay [1] (setting [5]) was 0.6 to 20 nM. Also, in assay [2] (setting [6]), the EC50 is 100 to 1000 nM.

Turning to `C=C[C@@H]1C[C@]1(NC(=O)[C@@H]1C[C@@H](Oc2ncc(OC)c3ccc(Cl)cc23)CN1C(=O)[C@@H](Nc1ccc(S(=O)(=O)NC(C)(C)C)cc1)C(C)(C)C)C(=O)NS(=O)(=O)C1CC1` [214 first isomer, N-(4-(tert-butylsulfamoyl)phenyl)-3-methyl-L-valyl-(4R)-4-((7-chloro-4-methoxy-1-isoquinolinyl)oxy)-N-((1R,2S)-1-((cyclopropylsulfonyl)carbamoyl)-2-vinylcyclopropyl)-L-prolinamide], the IC50 in assay [1] (setting [5]) was in the range of 0.6 to 20 nM. In assay [2] (setting [6]), the EC50 lay in the range of 100 to 1000 nM.

With `C=C[C@@H]1C[C@]1(NC(=O)[C@@H]1C[C@@H](Oc2nccc3cc(OC)ccc23)CN1C(=O)[C@H](Nc1ccccc1)C(C)(C)C)C(=O)NS(=O)(=O)C1CC1` [Compound 15B, 3-methyl-N-phenyl-D-valyl-(4R)—N-((1R,2S)-1-((cyclopropylsulfonyl)carbamoyl)-2-vinylcyclopropyl)-4-((6-methoxy-1-isoquinolinyl)oxy)-L-prolinamide], in assay [1] (setting [3]), the IC50 came out at 1900 nM. For the same molecule, the 50% effective concentration (EC50) in assay [2] (setting [4]) was determined as 3380 nM.

With `C=C[C@@H]1C[C@]1(NC(=O)[C@@H]1C[C@@H](Oc2ncc(OC)c3ccc(Cl)cc23)CN1C(=O)C(Nc1ccc(C)nc1)C(C)(C)C)C(=O)NS(=O)(=O)C1CC1` (single isomer, unassigned) [26 first isomer], the IC50 in assay [1] (setting [5]) was 0.6 to 20 nM. For the same molecule, the EC50 in assay [2] (setting [6]) is 3 to 100 nM.

Regarding `C=C[C@@H]1C[C@]1(NC(=O)[C@@H]1C[C@@H](Oc2nc(OC)cc3cc(OC)ccc23)CN1C(=O)C(Nc1ccccc1)C(C)(C)C)C(=O)NS(=O)(=O)C1CC1` (single isomer, unassigned) [20 second isomer], in assay [1] (setting [5]), the IC50 lay within 20 to 200 nM. Moreover, the EC50 in assay [2] (setting [7]) is 100 to 1000 nM.

Consider `C=C[C@@H]1C[C@]1(NC(=O)[C@@H]1C[C@@H](Oc2ncc(OC)c3ccc(Cl)cc23)CN1C(=O)[C@@H](Nc1cccc(C(=O)OC(C)C)c1)C(C)(C)C)C(=O)NS(=O)(=O)C1CC1` [231 first isomer, N-(3-(isopropoxycarbonyl)phenyl)-3-methyl-L-valyl-(4R)-4-((7-chloro-4-methoxy-1-isoquinolinyl)oxy)-N-((1R,2S)-1-((cyclopropylsulfonyl)carbamoyl)-2-vinylcyclopropyl)-L-prolinamide], for which the IC50 in assay [1] (setting [5]) lay in the range of 0.6 to 20 nM. In assay [2] (setting [6]), the EC50 lay in the range of 3 to 100 nM.

Regarding `C=C[C@@H]1C[C@]1(NC(=O)[C@@H]1C[C@@H](Oc2ncc(OC)c3ccc(Cl)cc23)CN1C(=O)C(Nc1cc(C)cc(C)n1)C(C)(C)C)C(=O)NS(=O)(=O)C1CC1` (single isomer, unassigned) [22 first isomer], the IC50 in assay [1] (setting [5]) lay within 0.6 to 20 nM. Besides, the EC50 in assay [2] (setting [7]) was in the range of 3 to 100 nM.

In the case of `C=C[C@@H]1C[C@]1(NC(=O)[C@@H]1C[C@@H](Oc2ncc(OC)c3ccc(Cl)cc23)CN1C(=O)[C@H](Nc1ccccc1F)C(C)(C)C)C(=O)NS(=O)(=O)C1CC1` [234 second isomer, N-(2-fluorophenyl)-3-methyl-D-valyl-(4R)-4-[(7-chloro-4-methoxy-1-isoquinolinyl)oxy]-N-((1R,2S)-1-{[(cyclopropylsulfonyl)amino]carbonyl}-2-vinylcyclopropyl)-L-prolinamide], the IC50 in assay [1] (setting [5]) was greater than 200 nM. Also, in assay [2] (setting [6]), the EC50 was greater than 1000 nM.

With `C=C[C@@H]1C[C@]1(NC(=O)[C@@H]1C[C@@H](Oc2ncc(OC)c3ccc(Cl)cc23)CN1C(=O)C(Nc1nsnc1OC)C(C)C)C(=O)NS(=O)(=O)C1CC1` (stereo partly shown) [Compound 242], the IC50 in assay [1] (setting [5]) was in the range of 0.6 to 20 nM. In addition, the EC50 in assay [2] (setting [6]) was in the range of 3 to 100 nM.

For the molecule `C=C[C@@H]1C[C@]1(NC(=O)[C@@H]1C[C@@H](Oc2ncc(OC)c3ccc(Cl)cc23)CN1C(=O)C(CC)Nc1nsnc1OC)C(=O)CS(=O)(=O)C1CC1` (stereo partly shown) [Compound 241], the IC50 in assay [1] (setting [5]) is greater than 200 nM. For the same molecule, the EC50 in assay [2] (setting [6]) was greater than 1000 nM.
